Test results from publication PMC7693676, “Suberitamides A–C, Aryl Alkaloids from a Pseudosuberites sp. Marine Sponge that Inhibit Cbl-b Ubiquitin Ligase Activity” (Marine Drugs, 2020).

Biological target: T1, Cbl-b (Homo sapiens, UniProt Q13191)
T1 construct: gene CBLB; N1/2 Construct; with E1 (UBE1) and E2 (UBC-H5) with ubiquitin in the assay
Assay: in vitro Cbl-b autoubiquitination assay (UBA-coated plate, biotin-ubiquitin/avidin-HRP fluorescence), dose response
Assay type: biochemical

T1 sequence (Q13191 whole entry): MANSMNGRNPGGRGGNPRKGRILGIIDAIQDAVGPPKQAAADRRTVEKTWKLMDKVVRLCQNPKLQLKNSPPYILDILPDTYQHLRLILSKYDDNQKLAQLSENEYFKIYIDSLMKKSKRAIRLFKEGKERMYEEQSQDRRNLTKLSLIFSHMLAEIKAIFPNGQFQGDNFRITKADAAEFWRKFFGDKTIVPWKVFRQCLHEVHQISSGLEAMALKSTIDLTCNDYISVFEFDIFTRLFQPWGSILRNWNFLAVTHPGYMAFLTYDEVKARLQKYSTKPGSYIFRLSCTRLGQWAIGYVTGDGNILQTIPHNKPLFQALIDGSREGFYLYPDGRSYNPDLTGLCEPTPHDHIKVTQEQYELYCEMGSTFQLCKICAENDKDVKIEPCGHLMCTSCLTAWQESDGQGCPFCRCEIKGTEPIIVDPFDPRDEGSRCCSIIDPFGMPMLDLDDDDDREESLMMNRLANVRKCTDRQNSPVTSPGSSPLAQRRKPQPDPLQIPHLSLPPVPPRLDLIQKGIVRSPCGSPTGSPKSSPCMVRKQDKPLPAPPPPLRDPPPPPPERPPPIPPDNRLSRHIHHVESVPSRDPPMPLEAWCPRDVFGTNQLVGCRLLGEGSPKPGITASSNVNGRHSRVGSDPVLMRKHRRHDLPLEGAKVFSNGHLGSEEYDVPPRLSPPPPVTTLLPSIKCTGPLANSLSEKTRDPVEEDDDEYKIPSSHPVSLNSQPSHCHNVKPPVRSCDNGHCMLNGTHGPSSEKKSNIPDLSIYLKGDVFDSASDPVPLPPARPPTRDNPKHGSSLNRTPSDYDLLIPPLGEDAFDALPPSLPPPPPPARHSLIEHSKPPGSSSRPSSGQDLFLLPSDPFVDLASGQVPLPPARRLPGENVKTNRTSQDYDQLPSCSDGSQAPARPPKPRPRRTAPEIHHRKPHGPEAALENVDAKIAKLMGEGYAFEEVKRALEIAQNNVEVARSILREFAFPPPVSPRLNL
T1 sequence (P22314 2-1058 partner): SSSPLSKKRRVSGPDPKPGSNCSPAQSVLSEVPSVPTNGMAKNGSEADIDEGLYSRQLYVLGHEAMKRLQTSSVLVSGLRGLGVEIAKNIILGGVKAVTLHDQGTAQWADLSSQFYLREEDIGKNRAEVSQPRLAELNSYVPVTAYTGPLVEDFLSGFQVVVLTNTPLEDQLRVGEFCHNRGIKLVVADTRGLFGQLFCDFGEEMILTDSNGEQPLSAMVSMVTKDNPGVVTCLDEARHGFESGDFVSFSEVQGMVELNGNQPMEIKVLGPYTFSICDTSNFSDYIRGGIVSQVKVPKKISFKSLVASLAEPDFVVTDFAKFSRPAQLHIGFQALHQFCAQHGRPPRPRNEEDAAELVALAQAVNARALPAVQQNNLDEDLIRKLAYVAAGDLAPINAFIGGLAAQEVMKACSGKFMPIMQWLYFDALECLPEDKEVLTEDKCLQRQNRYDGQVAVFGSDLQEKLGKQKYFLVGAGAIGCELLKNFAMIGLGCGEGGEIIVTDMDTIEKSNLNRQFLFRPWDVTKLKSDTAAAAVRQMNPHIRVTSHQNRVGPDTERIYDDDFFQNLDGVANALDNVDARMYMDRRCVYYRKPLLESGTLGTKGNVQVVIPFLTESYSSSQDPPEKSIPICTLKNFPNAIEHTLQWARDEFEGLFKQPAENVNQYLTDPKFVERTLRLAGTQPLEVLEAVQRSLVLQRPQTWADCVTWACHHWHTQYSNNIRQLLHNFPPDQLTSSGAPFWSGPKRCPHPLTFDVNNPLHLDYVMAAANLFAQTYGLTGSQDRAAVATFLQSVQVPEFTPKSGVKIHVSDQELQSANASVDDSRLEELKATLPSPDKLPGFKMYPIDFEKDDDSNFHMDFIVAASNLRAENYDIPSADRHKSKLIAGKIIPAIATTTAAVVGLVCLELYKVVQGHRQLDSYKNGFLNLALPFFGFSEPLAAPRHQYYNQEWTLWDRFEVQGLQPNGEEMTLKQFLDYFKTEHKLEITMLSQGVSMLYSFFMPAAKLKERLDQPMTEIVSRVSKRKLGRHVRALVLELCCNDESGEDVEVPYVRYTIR

IC50 | SMILES
~11 µM | CO[C@@]1(C(=O)N/C=C/c2ccc(O)cc2)O[C@](O)(C(=O)N/C=C/c2ccc(O)cc2)[C@@H](c2ccc(O)c(O)c2)[C@@H]1c1ccc(O)c(O)c1 [compound 1, suberitamide A]
~11 µM | O=C(N/C=C/c1ccc(O)cc1)c1c(-c2ccc(O)c(O)c2)c(-c2ccc(O)c(O)c2)c(C(=O)N/C=C/c2ccc(O)cc2)n1CCc1ccc(O)cc1 [compound 2, suberitamide B]
